The values below come from patent US20110230493A1, “1-OXA-8-Azaspiro [4,5] Decabe-8-Carboxamide Compounds as FAAH Inhibitors” (Pfizer Inc., priority 2008, published 2011).

Molecules are shown by their SMILES. Marks after values point to notes of the source that are not given here.

One test addresses T1, human FAAH (Homo sapiens, UniProt O00519).
T1 construct: made in house; host or cells: E. coli
T1 sequence (O00519 1-579): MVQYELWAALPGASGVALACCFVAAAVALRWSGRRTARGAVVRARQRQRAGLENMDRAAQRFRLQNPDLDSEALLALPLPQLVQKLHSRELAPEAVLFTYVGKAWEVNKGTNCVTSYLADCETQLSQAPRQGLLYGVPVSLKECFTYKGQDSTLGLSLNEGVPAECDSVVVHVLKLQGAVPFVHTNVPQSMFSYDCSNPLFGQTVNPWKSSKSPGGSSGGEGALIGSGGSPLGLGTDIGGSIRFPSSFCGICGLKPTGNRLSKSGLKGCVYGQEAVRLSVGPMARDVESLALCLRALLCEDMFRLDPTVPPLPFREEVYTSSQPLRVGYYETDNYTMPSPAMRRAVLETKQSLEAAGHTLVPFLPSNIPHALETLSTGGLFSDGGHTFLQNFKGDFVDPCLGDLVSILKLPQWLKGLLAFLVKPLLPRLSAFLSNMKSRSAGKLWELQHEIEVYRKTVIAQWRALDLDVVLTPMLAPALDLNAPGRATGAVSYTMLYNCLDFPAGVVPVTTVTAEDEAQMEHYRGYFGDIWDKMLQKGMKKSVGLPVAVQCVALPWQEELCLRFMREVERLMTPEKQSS
Nature of the test: FAAH assay, human FAAH enzyme inactivation (kinact/Ki). Format: biochemical. The settings on record: oleamide 50 μM, 30° C.; for kinact/KI: pH 7.4, in vitro, read-out: hFAAH kinact/Ki; for hFAAH kinact/Ki: in vitro, pH 7.4. On the procedure: (§1) The FAAH assay was carried out in 384-well clear polystyrene plates (Evergreen Scientific) in a total volume of 50 μl per well in a manner similar to that described by Mileni et al., Proc. Nat. Acad. Sci. 2008, 105, 12820-12824. All percents are by volume. Serial dilutions of compound were initially prepared in 100% DMSO, and then diluted two-fold into HPLC-grade H2O to give 50% DMSO. To each well, was placed the reaction mixture (40 μl) containing 1-4 nM FAAH, 50 mM NaPi, pH 7.4, 3 mM α-ketoglutarate, 0.15 mM NADH, 7.5 U/ml glutamate dehydrogenase, 2 mM ADP, 1 mM EDTA, and 0.1% Triton X-100 (The concentration shown for each component is the final concentration in the assay). To this mixture, was added 5 μl of a compound of Examples 1 to 101 at various concentrations in 50% DMSO (or 5 μl 50% DMSO for controls). This was immediately followed by the addition of 5 μl oleamide (500 μM) dissolved in 75% EtOH/25% DMSO and the reaction mixture was mixed for 1.5 min. The final concentrations of DMSO and EtOH in the assay were each 7.5%. The reactions were incubated at 30° C. and the absorbance at 340 nm was collected over a period of 90 min with readings taken in 30-second intervals using SpectraMax Plus^384 Microplate Spectrophotometer (Molecular Devices, Sunnyvale, Calif.). The human FAAH and rat FAAH used in the assay was prepared as described in the patent application WO 2006/067613 using wild-type E. coli cells transformed in St. Louis, Mo., U.S.A. The purity of the enzyme was greater than 98% based on an analysis by SDS-polyacrylamide gel electrophoresis followed by Coomassie Blue staining.
(§2) Reaction progress curves were corrected for the non-enzymatic oxidation of NADH by subtraction of absorbancies at each time point obtained from control reactions containing no FAAH enzyme. The loss of enzyme activity as a function of time is well-described by the following mathematical equation (1) for a mono-exponential decay: […]
(§3) where At represents the absorbance at time t, A0 represents the absorbance at time zero, and C represents a constant. Observed rates of enzyme inactivation (kobs) were determined from the non-linear reaction progress curves by fitting the corrected absorbancies to an equation for a mono-exponential decay using the third-party Microsoft Excel plug-in, XLfit (IDBS Limited). Secondary plots of kobs vs. inhibitor concentration were prepared from kobs values obtained from progress curves. Second-order rates for enzyme inactivation, expressed as kinact/Ki (M^−1 s^−1), were calculated from the slopes from linear regression analysis of the secondary plot of kobs vs. inhibitor concentration as defined in following equation (2), where [I]<<Ki:
(§4) The concentration of substrate in the assay was equal to the Km for oleamide of 50 μM. Therefore, reported kinact/Ki values are obtained by multiplying resulting slopes by a factor of two (i.e. slope=kinact/(Ki*2)).
(§5) Table 1, below, lists human FAAH (hFAAH) and rat FAAH (rFAAH) enzyme inhibition values for Examples 1-101 as a ratio of kinact/Ki (M^−1 s^−1).

For a further test, the target named is T2, rat FAAH (Rattus norvegicus, UniProt P97612).
T2 construct: made in house; host or cells: E. coli
T2 sequence (P97612 1-579): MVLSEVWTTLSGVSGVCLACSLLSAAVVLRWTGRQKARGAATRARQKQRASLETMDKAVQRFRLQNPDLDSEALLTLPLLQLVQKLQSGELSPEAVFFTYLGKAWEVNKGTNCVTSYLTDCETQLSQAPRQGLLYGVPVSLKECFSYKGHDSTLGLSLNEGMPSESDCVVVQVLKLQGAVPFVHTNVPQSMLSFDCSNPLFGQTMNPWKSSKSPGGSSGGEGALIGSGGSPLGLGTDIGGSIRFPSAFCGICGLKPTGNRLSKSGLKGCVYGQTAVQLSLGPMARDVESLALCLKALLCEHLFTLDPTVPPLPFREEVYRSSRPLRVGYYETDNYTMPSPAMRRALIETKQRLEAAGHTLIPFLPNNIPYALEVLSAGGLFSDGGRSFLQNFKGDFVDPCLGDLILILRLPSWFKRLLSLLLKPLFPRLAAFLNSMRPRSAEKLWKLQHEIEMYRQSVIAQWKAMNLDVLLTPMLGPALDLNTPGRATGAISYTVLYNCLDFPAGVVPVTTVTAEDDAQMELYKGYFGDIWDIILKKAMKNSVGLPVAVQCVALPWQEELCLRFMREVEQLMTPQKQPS
The test is described as follows: FAAH assay, rat FAAH enzyme inactivation (kinact/Ki). Format: biochemical. The settings on record: oleamide 50 μM, 30° C.; for kinact/KI: pH 7.4, in vitro, read-out: rFAAH kinact/Ki; for rFAAH kinact/Ki: in vitro, pH 7.4. On the procedure:
as §1, §2, §3, §4, §5

Another test deals with Male Sprague-Dawley Rats. Nature of the test: In vivo Complete Freund's Adjuvant (CFA) efficacy assay, inhibition of allodynia. The arrangement: species or system rat; key: (+) indicates the test compound was determined to be efficacious at 3 mpk, oral dosing; (−) indicates the test compound was determined to not be efficacious at 3 mpk, oral dosing. The settings on record: p < 0.05 vs vehicle group. On the procedure: For additional information on the CFA efficacy assay, see Jayamanne et al., Brit. J. Pharmacol. 2006, 147, 281-288. Experiments were performed on adult Male Sprague-Dawley Rats (200 g-250 g). Inflammation was induced in the left hindpaw of the rat by an intra-plantar injection of 150 uL Complete Freund's Adjuvant (CFA) (SIGMA F5881). The CFA injection immediately induces local inflammation, paw swelling, and pain that persists for at least two weeks post-injection. Baseline paw withdrawal threshold (PWT) was measured to determine the percent inhibition of allodynia using a set of Von Frey Hairs on day 4 post injection as illustrated by the Dixon Up and Down Method (W. J. Dixon, Ann. Rev. Pharmacol. Toxicol. 1980, 20:441-462). […] Following Dose administration PWT threshold was evaluated again at four hours postdose. The Sprague-Dawley rats used in this assay were purchased from Harlan, 8520 Allison Pointe Blvd., Indianapolis, Ind., 46250, U.S.A. Sprague-Dawley rats are an outbred breed of albino rats first produced by the Sprague Dawley farms in Madison, Wis., U.S.A.
Percent Inhibition of Allodynia was determined by the formula: […]
ΔPWT measurements were averaged for each treatment group and statistical comparisons between groups were made using ANOVA and Dunnett's two-tailed test. […]

For the compound `O=C(Nc1cccnn1)N1CCC2(CC1)CC(c1cccc(Oc3ccc(C(F)(F)F)cn3)c1)CO2` (racemic) [Example 1, (3RS)—N-pyridazin-3-yl-3-(3-{[5-(trifluoromethyl)pyridin-2-yl]oxy}phenyl)-1-oxa-8-azaspiro[4.5]decane-8-carboxamide], the values for the kinact/KI on human FAAH and on rat FAAH were 3130 M⁻¹ s⁻¹ and 1880 M⁻¹ s⁻¹, respectively. Besides, in the test with Male Sprague-Dawley Rats (25 mpk, intraperitoneal dosing), the “CFA Efficacy” value was “(+)^d”.
For `Cc1noc(NC(=O)N2CCC3(CC2)CC(c2cccc(OC(F)(F)F)c2)CO3)c1C` (single isomer, unassigned) [Example 33, N-(3,4-dimethylisoxazol-5-yl)-3-[3-(trifluoromethoxy)phenyl]-1-oxa-8-azaspiro[4.5]decane-8-carboxamide], the values for the kinact/KI on human FAAH and on rat FAAH were 3420 M⁻¹ s⁻¹ and 4070 M⁻¹ s⁻¹, respectively. Also, the “CFA Efficacy” value in the test on Male Sprague-Dawley Rats (3 mpk, oral dosing, PWT four hours postdose) is “(+)”.
Consider `Cc1noc(NC(=O)N2CCC3(CC2)CC(c2ccc(Cl)c(Cl)c2)CO3)c1C` (single isomer, unassigned) [Example 38, 3-(3,4-dichlorophenyl)-N-(3,4-dimethylisoxazol-5-yl)-1-oxa-8-azaspiro[4.5]decane-8-carboxamide], for which, at human FAAH, the “hFAAH kinact/Ki” value came to 2050 M⁻¹ s⁻¹. Also, the “rFAAH kinact/Ki” value at rat FAAH worked out at 2380 M⁻¹ s⁻¹.
Consider `Cc1noc(NC(=O)N2CCC3(CC2)CC(c2cc(F)cc(Cl)c2)CO3)c1C` (single isomer, unassigned) [Example 40, 3-(3-chloro-5-fluorophenyl)-N-(3,4-dimethylisoxazol-5-yl)-1-oxa-8-azaspiro[4.5]decane-8-carboxamide], for which, at human FAAH, the “hFAAH kinact/Ki” value is 2470 M⁻¹ s⁻¹. Further, the “rFAAH kinact/Ki” value at rat FAAH is 3740 M⁻¹ s⁻¹.
As to `Cc1noc(NC(=O)N2CCC3(CC2)CC(c2cccc(C(F)(F)F)c2)CO3)c1C` (single isomer, unassigned) [Example 66, N-(3,4-dimethylisoxazol-5-yl)-3-[3-(trifluoromethyl)phenyl]-1-oxa-8-azaspiro[4.5]decane-8-carboxamide], the results for the kinact/KI at human FAAH and at rat FAAH were 2140 M⁻¹ s⁻¹ and 2920 M⁻¹ s⁻¹, respectively.
With `Cc1noc(NC(=O)N2CCC3(CC2)CC(c2cccc(C(F)(F)F)c2)CO3)c1C` (single isomer, unassigned) [Example 67, N-(3,4-dimethylisoxazol-5-yl)-3-[3-(trifluoromethyl)phenyl]-1-oxa-8-azaspiro[4.5]decane-8-carboxamide], at human FAAH, the “hFAAH kinact/Ki” value came to 1330 M⁻¹ s⁻¹. Moreover, the “rFAAH kinact/Ki” value on rat FAAH amounted to 2680 M⁻¹ s⁻¹.
For the compound `CCCc1noc(NC(=O)N2CCC3(CC2)CC(c2ccc(Cl)c(Cl)c2)CO3)c1C` (single isomer, unassigned) [Example 69, 3-(3,4-dichlorophenyl)-N-(3-n-propyl-4-methylisoxazol-5-yl)-1-oxa-8-azaspiro[4.5]decane-8-carboxamide], the kinact/KI at human FAAH stood at 960 M⁻¹ s⁻¹; at rat FAAH, 4880 M⁻¹ s⁻¹.
Consider `Cc1nnc(NC(=O)N2CCC3(CC2)CC(c2cccc(OC(F)(F)F)c2)CO3)o1` (single isomer, unassigned) [Example 70, N-(5-methyl-1,3,4-oxadiazol-2-yl)-3-[3-(trifluoromethoxy)phenyl]-1-oxa-8-azaspiro[4.5]decane-8-carboxamide], for which the kinact/KI at human FAAH is 2110 M⁻¹ s⁻¹; on rat FAAH it was 2390 M⁻¹ s⁻¹.
In the same order, the values of `Cc1noc(NC(=O)N2CCC3(CC2)C[C@H](c2cccc(-c4ccc(F)c(F)c4)c2)CO3)c1C` [Example 58, (3R)-3-(3′,4′-difluorobiphenyl-3-yl)-N-(3,4-dimethylisoxazol-5-yl)-1-oxa-8-azaspiro[4.5]decane-8-carboxamide] are 2780 M⁻¹ s⁻¹ and 707 M⁻¹ s⁻¹.
Take `Cc1noc(NC(=O)N2CCC3(CC2)C[C@H](c2cccc(-c4ccc(OC(F)(F)F)cc4)c2)CO3)c1C` [Example 64, (3R)—N-(3,4-dimethylisoxazol-5-yl)-3-[4′-(trifluoromethoxy)biphenyl-3-yl]-1-oxa-8-azaspiro[4.5]decane-8-carboxamide]: the values for the kinact/KI at human FAAH and at rat FAAH were 1490 M⁻¹ s⁻¹ and 588 M⁻¹ s⁻¹, respectively.
For `Cn1nnnc1NC(=O)N1CCC2(CC1)C[C@H](c1ccc(OCc3cccc(F)c3)cc1)CO2` [Example 86, (3R)-3-{4-[(3-fluorobenzyl)oxy]phenyl}-N-(1-methyl-1H-tetrazol-5-yl)-1-oxa-8-azaspiro[4.5]decane-8-carboxamide], the kinact/KI on human FAAH was 28400 M⁻¹ s⁻¹; at rat FAAH, 11200 M⁻¹ s⁻¹.
As to `Cc1noc(NC(=O)N2CCC3(CC2)C[C@H](c2cccc(-c4ccc(C(F)(F)F)cn4)c2)CO3)c1C` [Example 98, (3R)—N-(3,4-dimethylisoxazol-5-yl)-3-{3-[5-(trifluoromethyl)pyridin-2-yl]phenyl}-1-oxa-8-azaspiro[4.5]decane-8-carboxamide], the figures for the kinact/KI at human FAAH and at rat FAAH were 2820 M⁻¹ s⁻¹ and 1630 M⁻¹ s⁻¹, respectively.
